Laboratory results reported in patent US20220389500A1, “PURIFYING AND POLYMERIZING 3'-BLOCKED NUCLEOTIDES” (ILLUMINA, INC., priority 2021, published 2022).

Key:
[1] = Concentrations of byproducts diphosphate and tetraphosphate in nucleotide solutions vs HPBCD, magnesium ions and nucleotides (FIG. 15); type: physicochemical; conditions: solutions with buffer, polymerase and oligonucleotide template
Description: A precipitate was formed and a color change of solution was observed when nucleotides (3′-blocked and 3′-OH), which were coupled to different fluorescent dyes, were mixed with polishing polymerase, a template, magnesium ions (from magnesium acetate), and a buffer. The change in color was interpreted as the solution having a reduced concentration of fluorescent dyes, and the precipitate was interpreted as being an aggregation of the nucleotides coupled to the fluorescent dyes. […] The plots described below with reference to FIGS. 12-15 were obtained by using the measured normalized intensities, together with the corresponding concentrations of different solution components, in a model that interpolated the behavior of the solution system for additional concentrations. […]
FIG. 15 includes plots of the concentrations of different byproducts as a function of concentrations of the modified β-cyclodextrin HPBCD, of magnesium ions, and of the fluorescently labeled nucleotides FFA-1, FFA-3, and FFC-1. More specifically, the respective concentrations of diphosphate and tetraphosphate in the solutions were measured and used in the above-noted models. […]

[2] = Observation of precipitate and color change of dye-coupled nucleotide solutions with polishing polymerase, template, magnesium ions and buffer; type: physicochemical; conditions: HPBCD added to dye-coupled nucleotides, magnesium ions (magnesium acetate) and buffer
Description: A precipitate was formed and a color change of solution was observed when nucleotides (3′-blocked and 3′-OH), which were coupled to different fluorescent dyes, were mixed with polishing polymerase, a template, magnesium ions (from magnesium acetate), and a buffer. The change in color was interpreted as the solution having a reduced concentration of fluorescent dyes, and the precipitate was interpreted as being an aggregation of the nucleotides coupled to the fluorescent dyes. […] From this it was inferred that modified α-cyclodextrins (such as (2-hydroxypropyl)-α-cyclodextrin), other modified β-cyclodextrins (such as […], HEBCD), or modified γ-cyclodextrins (such as (2-hydroxypropyl)-γ-cyclodextrin) may promote solubility of the nucleotides and/or of the fluorescent dyes. A series of solutions were prepared in which the concentration of magnesium ions was varied between 0 and 6.3 mM, the concentration of HPBCD was varied between 0% and 10% (w/v), and the concentration of nucleotides including fluorescent dyes was varied between 0.5 and 1.5 mM. […] The plots described below with reference to FIGS. 12-15 were obtained by using the measured normalized intensities, together with the corresponding concentrations of different solution components, in a model that interpolated the behavior of the solution system for additional concentrations. […]

Which results are given for CC(O)COC[C@H]1O[C@@H]2O[C@H]3[C@H](O)[C@@H](O)[C@@H](O[C@H]4[C@H](O)[C@@H](O)[C@@H](O[C@H]5[C@H](O)[C@@H](O)[C@@H](O[C@H]6[C@H](O)[C@@H](O)[C@@H](O[C@H]7[C@H](O)[C@@H](O)[C@@H](O[C@H]8[C@H](O)[C@@H](O)[C@@H](O[C@H]1[C@H](O)[C@H]2O)O[C@@H]8COCC(C)O)O[C@@H]7COCC(C)O)O[C@@H]6COCC(C)O)O[C@@H]5COCC(C)O)O[C@@H]4COCC(C)O)O[C@@H]3COCC(C)O (stereo partly drawn) [HPBCD, (2-hydroxypropyl)-β-cyclodextrin]?
effect on formation of byproducts (diphosphate, tetraphosphate) [1]: suppressed the formation of different byproducts; precipitate formation and color change of solution [2]: did not form a precipitate or change color
